Reference: patent publication US11458212B2, “Molecular imaging of cancer cells in vivo” (H. Lee Moffitt Cancer Center and Research Institute, Inc., priority 2011, dated 2022)
“Also recorded” adds a separate entry of the source.

System: parental HEK293 cells
Test: TLR2 functional bioassay in parental HEK293 cells (negative control)
Format: cell-based
Conditions: ligand stimulated HEK293 cells
From the text: In Vitro TLR2 Functional Bioassay The in vitro TLR2 functional bioassay was developed and optimized for use in screening soluble compound libraries to identify both TLR2 agonists and antagonists. In this study, the TLR2 functional bioassay was used as a fast high throughput screening to identify TLR2 agonist ligands by measuring the inducing activity of NF-κB. HEK293/hTLR2 cells, highly overexpressing human TLR2, were used along with the parental HEK293, cells as a negative control. […] On day 4 after 24 hrs of peptide stimulation, luciferase induced activity by the induction of NF-κB was measured. […] The luminescence intensity was measured using the standard luminescence protocol on a Victor™ X4 plate-reader equipped with a plate stacker for readout of multiple plates at a time (PerkinElmer, Waltham, Mass.). […] Data were analyzed with GraphPad Prism software and curves were generated with the appropriate nonlinear fit regression analysis.
The in vitro TLR2 functional bioassay was developed and optimized for use in high-throughput screening of soluble compound libraries to identify both TLR2 agonists and antagonists. […] On day 4 after 24 h of peptide stimulation, luciferase induced activity by the induction of NF-κB was measured. […]

Row | Structure (SMILES) | NF-κB induced luciferase activity in non-expressing TLR2 cell line
1 | CCCCCCCCCCCCCCCC(=O)N[C@@H](CSCC(COC(=O)CCCCCCCCCCCCCCC)OC(=O)CCCCCCCCCCCCCCC)C(=O)N[C@@H](CO)C(=O)N[C@@H](CCCCN)C(=O)N[C@@H](CCCCN)C(=O)N[C@@H](CCCCN)C(=O)N[C@@H](CCCCN)C(=O)O (mixture of isomers) [Pam3CSK4, N-Palmitoyl-S-[2,3-bis(palmitoyloxy)-(2RS)-propyl]-[R]-cysteinyl-[S]-seryl-[S]-lysyl-[S]-lysyl-[S]-lysyl-[S]-lysine, reference compound] | did not exhibit any significant NF-κB luciferase activity; also recorded: did not exhibit significant NF-κB induced luciferase activity; also recorded: no measurable luminescence; also recorded: No activity was observed
2 | CCCCCCCCCCCCCCCC(=O)OCC(CSC[C@H](N)C(=O)N[C@@H](CO)C(=O)N[C@@H](CCCCN)C(=O)N[C@@H](CCCCN)C(=O)N[C@@H](CCCCN)C(=O)N[C@@H](CCCCN)C(=O)O)OC(=O)CCCCCCCCCCCCCCC (mixture of isomers) [Pam2CSK4, S-[2,3-bis(palmitoyloxy)-(2RS)-propyl]-[R]-cysteinyl-[S]-seryl-[S]-lysyl-[S]-lysyl-[S]-lysyl-[S]-lysine, reference compound] | did not exhibit significant NF-κB induced luciferase activity
